Reference: patent US20210100788A1, “PALONOSETRON FORMULATIONS AND USES THEREOF” (LUXENA PHARMACEUTICALS, INC., priority 2014, published 2021)
Where a name gives a salt, the structure may show the parent alone.

Experiment: Particle size distribution of jet milled palonosetron fine powder by HELOS Particle Size Analyzer
Assay type: physicochemical
Procedure: Palonosetron HCl was milled with a 2-in pancake Jet Mill and flexible containment. The process air was nitrogen. The jet milling was conducted at Catalent Micron Technologies, Malvern, Pa., USA.
The particle size distribution of the palonosetron fine powder, prepared by jet milling, was measured by HELOS Particle Size Analyzer (Sympatec GmbH, Germany) at Micron Technologies, Inc., Malvern, Pa., USA.
The Particle Size Distribution parameters are: • D10: 0.68 μm • D50: 1.39 μm • D90: 2.89 μm • D95: 3.68 μm • D99.5: 6.92 μm • Cumulative % <9 μm: 100%

Cumulative % <9 μm: 100%
D10: 0.68 μm
D50: 1.39 μm
D90: 2.89 μm
D95: 3.68 μm
D99.5: 6.92 μm
Structure (SMILES): O=C1c2cccc3c2[C@H](CCC3)CN1[C@@H]1CN2CCC1CC2 [Jet Milled Palonosetron Fine Powder, Palonosetron HCl]
